{
  "source": "patent US8030294B2",
  "about": "“Compounds for the treatment of psychiatric or substance abuse disorders” (The McLean Hospital Corporation, priority 2000, dated 2011)",
  "key": {"[1]": {"experiment": "Continuous performance task (CPT), a measure of attention, in children with ADHD", "format": "in vivo, human", "details": "ADHD boys (n=11), one week", "procedure": "(§1) A new fMRI procedure (T2 relaxometry or “T2-RT”) was developed to indirectly assess blood volume in the striatum (caudate and putamen) of boys 6-12 years of age under steady-state conditions. Six healthy control boys (10.2±1.5 yr) and eleven boys diagnosed with ADHD (9.3±1.6 yr) served as subjects in the study to examine fMRI differences between unmedicated healthy controls and ADHD children on either placebo or the highest dose of methylphenidate. […] Activity and attention were evaluated in unmedicated healthy controls using the same procedure as children with ADHD, and fMRI followed within the same time frame.\n(§2) Highly accurate laboratory-based measures of activity and attention were obtained by having the children perform a computerized vigilance test while an infrared motion analysis system captured and recorded movements (see Methods). […]\n(§3) Assessment of Activity and Attention. […] In brief, children sat in front of a computer and were evaluated using a simple GO/NO-GO CPT in which the subject responds to visual presentation of a target and withholds response to a non-target stimuli that appear in the center of the screen at a fixed 2 second […] interval (Greenberg et al., Psychopharmacol. Bull. 23: 279-282,1987). […]"}, "[2]": {"system": "regional blood volume in putamen, caudate and thalamus", "experiment": "T2 relaxometry (T2-RT) fMRI in children with ADHD", "format": "in vivo, human", "details": "ADHD boys, vs placebo; P>0.7", "text": "A new fMRI procedure (T2 relaxometry or “T2-RT”) was developed to indirectly assess blood volume in the striatum (caudate and putamen) of boys 6-12 years of age under steady-state conditions. […] Children with ADHD were included if they met criteria for ADHD on structured diagnostic interview, and had at least 6 of 9 symptoms of inattention or hyperactivity-impulsivity. Children with ADHD took part in a triple blind (parent, child, rater), randomized, placebo-controlled study of effects of methylphenidate (0, 0.5, 0.8, 1.5 mg/kg in divided dose) on activity, attention, and fMRI. Children with ADHD were treated continuously for one week with placebo or a specific dose of methylphenidate and at the end of the week were tested for drug efficacy using objective measures of attention and activity and fMRI (See Methods) within 1-3 hours of their afternoon dose. The time between dose and testing was held constant for each subject throughout the four treatment conditions. Activity and attention were evaluated in unmedicated healthy controls using the same procedure as children with ADHD, and fMRI followed within the same time frame.\nT2 relaxometry, a novel FMRI procedure, was used to derive steady state blood flow measures and to test for enduring medication effects. […]"}, "[3]": {"experiment": "Infrared motion analysis of activity during CPT in children with ADHD", "format": "in vivo, human", "details": "ADHD boys (n=11) vs placebo; P<0.05", "procedure": "as §1, §2, §3"}, "[4]": {"experiment": "Forced swim test (FST), a rodent model of depression", "format": "in vivo", "details": "rats, IP; for effect in the forced swim test: citicoline 50-500 mg/kg, molar equivalent cytidine 23.8-238 mg/kg, choline 13.7-136.6 mg/kg", "excerpt": "The effects of citicoline were examined in the forced swim test (FST), a rodent model of depression."}, "[5]": {"experiment": "17-item Hamilton Depression Rating Scale (HDRS) in depressed subjects", "format": "in vivo, human", "details": "eight weeks, CDP-choline 6/12, fluoxetine 17/41", "procedure": "In a second study, twelve depressed subjects (mean age 40) received 500 mg of an oral formulation of CDP-choline twice daily for eight weeks."}, "[6]": {"details": "cited from earlier work"}, "[7]": {"details": "cited from earlier work", "remark": "listed apart in the source"}, "[8]": {"details": "in vivo; cited from earlier work"}, "[9]": {"system": "brain phosphodiesters", "experiment": "Phosphorus-31 MR spectroscopy of brain lipid metabolite resonances in healthy subjects", "format": "in vivo, human", "details": "healthy subjects (mean age 70), 500 mg oral daily, 6 to 12 weeks; p=0.008", "procedure": "To assess whether chronic CDP-choline administration leads to detectable changes in lipid metabolite resonances in phosphorus-31 MR spectra, eighteen healthy subjects (mean age: 70) were administered 500 mg of an oral formulation of CDP-choline daily for a six week period. From weeks 6 to 12, half of the subjects continued to receive CDP-choline and half received placebo in a double-blind fashion. […] CDP-choline administration, therefore, improves measures of verbal fluency and spatial memory in healthy adults and results in increased brain phospholipid synthesis in older adults, particularly during chronic administration."}, "[10]": {"details": "in vivo; cited from earlier work", "remark": "listed apart in the source"}},
  "data": [
    {"smiles": "COC(=O)C(c1ccccc1)C1CCCCN1", "note": "(centres unmarked) [methylphenidate]", "values": [
      {"measurement": "CPT performance accuracy", "setting": "[1]; highest dose vs placebo, P<0.05", "result": "enhancing performance accuracy"},
      {"measurement": "response variability (S.D.) of CPT response latency", "setting": "[1]; reduced from 242 on placebo, P<0.005", "result": 149, "unit": "ms"},
      {"measurement": "T2-RT in thalamus", "setting": "[2]", "result": "not affected"},
      {"measurement": "complexity of the movement pattern", "setting": "[3]", "result": "increasing the complexity of the movement pattern"}
    ]},
    {"smiles": "Nc1ccn([C@@H]2O[C@H](CO)[C@@H](O)[C@H]2O)c(=O)n1", "note": "[cytidine]", "values": [
      {"measurement": "effect in the forced swim test", "setting": "[4]", "result": "significant antidepressant effects"}
    ]},
    {"smiles": "CNCCC(Oc1ccc(C(F)(F)F)cc1)c1ccccc1", "note": "(centres unmarked) [fluoxetine]", "values": [
      {"measurement": "complete responses (share of subjects)", "setting": "[5]", "result": 41, "unit": "%"}
    ]},
    {"smiles": "C[N+](C)(C)CCOP(=O)(O)OP(=O)([O-])OC[C@H]1O[C@@H](n2ccc(N)nc2=O)[C@H](O)[C@@H]1O", "note": "[CDP-choline, cytidine 5′-diphosphocholine]", "values": [
      {"measurement": "conversion into the two major circulating metabolites, choline and cytidine", "setting": "[6]; orally or intravenously", "result": "rapidly converted"},
      {"measurement": "excretion via lung", "setting": "[6]; share of dose", "result": 12.9, "unit": "%"},
      {"measurement": "excretion via urine", "setting": "[6]; share of dose", "result": 2.4, "unit": "%"},
      {"measurement": "complete responses (share of subjects)", "setting": "[5]", "result": 50, "unit": "%"},
      {"measurement": "reported cases of overdoses", "setting": "[7]; in vivo", "result": "no reported cases of overdoses"},
      {"measurement": "symptoms on ingestion of large amounts", "setting": "[7]; preclinical studies, salivation, lacrimation, urination, defecation, vomiting", "result": "common cholinergic symptoms"},
      {"measurement": "tolerability in mammals", "setting": "[8]", "result": "well tolerated"},
      {"measurement": "brain phosphodiesters", "setting": "[9]", "result": "significant increase"},
      {"measurement": "effect in the forced swim test at high doses", "setting": "[4]; high doses", "result": "small pro-depressant effects"},
      {"measurement": "effect in the forced swim test", "setting": "[4]", "result": "did not have antidepressant effects"}
    ]},
    {"smiles": "CN(CC(=O)O)C(=N)N", "note": "[Creatine, creatine]", "values": [
      {"measurement": "tolerability in humans", "setting": "[10]", "result": "well tolerated at relatively high doses"}
    ]},
    {"smiles": "CC(=O)OC[C@H]1O[C@@H](n2ccc(=O)[nH]c2=O)[C@H](OC(C)=O)[C@@H]1OC(C)=O", "note": "[triacetyl uridine]", "values": [
      {"measurement": "tolerability in mammals", "setting": "[8]", "result": "well tolerated"}
    ]},
    {"smiles": "O=c1ccn([C@@H]2O[C@H](CO)[C@@H](O)[C@H]2O)c(=O)[nH]1", "note": "[uridine]", "values": [
      {"measurement": "tolerability in humans", "setting": "[10]", "result": "well tolerated"},
      {"measurement": "tolerability in mammals", "setting": "[8]", "result": "well tolerated"}
    ]}
  ]
}
